Laboratory results published in PubChem BioAssay AID1963837 (Molecular Pharmacology Branch, DTP, NCI, 2024).
“And” between values parts separate entries of the source, which are not always exact repeats. Identical values can stand only once.

Test system: 843126-344-R-J1-PDC complex spheroid viability
Experiment: Anticancer human tumor 843126-344-R-J1-PDC patient-derived melanoma cell line growth inhibition [POLQ]
Settings: for viability, T/C: stronger effect = lower value
Protocol: Multicellular complex tumor spheroid response to Polymerase (POL) inhibitors (novobiocin, ART-558, RP6685) in combination with a variety of drugs and investigational agents in selected tumor cell lines
The POL inhibitors (novobiocin, ART-558, and RP6685) were evaluated both individually and in combination with standard of care and investigational anticancer small molecules within a complex spheroid model of solid tumors. . Complex spheroids include a stromal component modeled by human endothelial cells (HUVEC) and fibroblasts modeled by human mesenchymal stem cells (MSCs). The concentration ranges selected for each drug and investigational agent were based upon clinically achievable concentrations if the clinical Cmax of the agent was known.
Compounds. The drugs and investigational agents: novobiocin (NSC847541), ART-558 (NSC835418), RP-6685 (NSC848927), peposertib (NSC802822), ceralasertib (NSC780249), elimusertib (NSC800525), camonsertib (NSC841442), AZD-1390 (NSC803789), olaparib (NSC753686), talazoparib (NSC767125), rucaparib (NSC756644), sotorasib (NSC818433), MRTX-1133 (NSC836407), SN-38 (NSC673596), topotecan (NSC609699), epotoside (NSC141540), doxorubicin (NSC123127), gemcitabine (NSC613327), 5-fluorouracil (NSC19893), paclitaxel (NSC125973), vemurafenib (NSC761431), MSA-2 (NSC828583), SN-011 (NSC837082), adavosertib (NSC754352), prexasertib (NSC758257), carboplatin (NSC241240) and oxaliplatin (NSC266046), were obtained from the National Cancer Institute (NCI) Developmental Therapeutics Program Chemical Repository (21). The FDA-approved anticancer drug set is available from the Developmental Therapeutics Program at https://dtp.cancer.gov/organization/dscb/obtaining/. […] The stock solutions were prepared in dimethyl sulfoxide (DMSO, Sigma-Aldrich, St. Louis, MO, cat. D2650), except for the platinum compounds which were prepared in saline (Quality Biological, Gaithersburg, MD, cat. 114-055-101), at 800-fold the tested concentration and stored at -70 degrees C prior to their use. All drugs and investigational agents were tested over a range starting from a high concentration at or near the clinical Cmax and decreasing in half-log increments. If the clinical Cmax for an agent had not been determined, the highest concentration tested was 10 microM, except for SN-38, which was tested at a high concentration of 1 microM.
Cell Culture. All cells were maintained in an incubator at 37 degrees C and 5% CO2 with 95% humidity. The PDC lines were cultured according to standard operating procedures established by the NCI PDMR (https://pdmr.cancer.gov). Table 3 of the manuscript, lists the cell lines along with the number of the three cell types plated to form the mct-spheroids and media for tumor cell growth. After thawing, all PDC lines, except 997537-175-T-J1-PDC and 415267-285-R-J2-PDC, were cultured in Matrigel-coated flasks prepared with a working solution of 1X Ham's F-12 nutrient mix, without supplementation (Thermo Fisher Scientific, cat. 11765054), 100 U/mL penicillin-streptomycin (Thermo Fisher Scientific, cat. 15140122), and 2.5% Matrigel (Corning Inc., Corning, NY, cat. 354248) for the first three passages. The two PDC lines 997537-175-T-J1-PDC and 415267-285-R-J2-PDC were cultured on uncoated flasks. The 857933-349-R-J2-PDC line was cultured in 6C/Colon 1B media containing advanced DMEM/F-12 (Thermo Fisher Scientific, cat. 12634028), 10 mM HEPES (Thermo Fisher Scientific, cat. 15630080), 1X GlutaMAX supplement (Thermo Fisher Scientific, cat. 35050061), 0.1 mg/mL primocin (InvivoGen, San Diego, CA, cat. ant-pm-2), 10% defined fetal bovine serum, heat inactivated (HyClone Laboratories Inc., Logan, UT, cat. SH30070.03HI), 50% L-WRN conditioned media (ATCC, cat. CRL-3276), 1.25 mM N-Acetyl-L-cysteine (Sigma-Aldrich, cat. A9165), 10 mM nicotinamide (Sigma-Aldrich, cat. N0636), 1X B-27 supplement (Thermo Fisher Scientific, cat. 17504044), 1X N-2 supplement (Thermo Fisher Scientific, cat. […]
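For viability, T/C in this document: spheroids exposed to drugs for seven days before readout.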

CCc1cc2c(N3CCc4c(cc(Cn5ccnc5)cc4-c4cn(C)nc4C(F)(F)F)C3=O)cc(C)nc2c(OC)n1 + Nc1ccc(C#CCN(C(=O)Cc2ncc(C(F)(F)F)cc2C(F)(F)F)c2ccc(F)cc2)nn1
IC50 (curve of first compound, second compound 0.0316 µM): > 10 µM | IC50 (curve of first compound, second compound 0.1 µM): > 10 µM | IC50 (curve of first compound, second compound 0.316 µM): > 10 µM | IC50 (curve of first compound, second compound 1 µM): > 10 µM | IC50 (curve of first compound, second compound 3.16 µM): > 10 µM | IC50 (curve of first compound, second compound 10 µM): > 10 µM | viability, T/C (second compound 0.0316 µM, first compound 0.0316 µM): 96.9% | viability, T/C (second compound 0.0316 µM, first compound 0.1 µM): 95.3% | viability, T/C (second compound 0.0316 µM, first compound 0.316 µM): 82% | viability, T/C (second compound 0.0316 µM, first compound 1 µM): 80.7% | viability, T/C (second compound 0.0316 µM, first compound 3.16 µM): 73.2% | viability, T/C (second compound 0.0316 µM, first compound 10 µM): 58.8% | viability, T/C (second compound 0.1 µM, first compound 0.0316 µM): 97.5% | viability, T/C (second compound 0.1 µM, first compound 0.1 µM): 99.5% | viability, T/C (second compound 0.1 µM, first compound 0.316 µM): 89.1% | viability, T/C (second compound 0.1 µM, first compound 1 µM): 82% | viability, T/C (second compound 0.1 µM, first compound 3.16 µM): 79.7% | viability, T/C (second compound 0.1 µM, first compound 10 µM): 58.2% | viability, T/C (second compound 0.316 µM, first compound 0.0316 µM): 87.5% | viability, T/C (second compound 0.316 µM, first compound 0.1 µM): 97.4% | viability, T/C (second compound 0.316 µM, first compound 0.316 µM): 77.6% | viability, T/C (second compound 0.316 µM, first compound 1 µM): 84.6% | viability, T/C (second compound 0.316 µM, first compound 3.16 µM): 76.8% | viability, T/C (second compound 0.316 µM, first compound 10 µM): 66.7% | viability, T/C (second compound 1 µM, first compound 0.0316 µM): 104% | viability, T/C (second compound 1 µM, first compound 0.1 µM): 94% | viability, T/C (second compound 1 µM, first compound 0.316 µM): 80.3% | viability, T/C (second compound 1 µM, first compound 1 µM): 81.7% | viability, T/C (second compound 1 µM, first compound 3.16 µM): 68.6% | viability, T/C (second compound 1 µM, first compound 10 µM): 58.8% | viability, T/C (second compound 3.16 µM, first compound 0.0316 µM): 90.6% | viability, T/C (second compound 3.16 µM, first compound 0.1 µM): 85.9% | viability, T/C (second compound 3.16 µM, first compound 0.316 µM): 93.4% | viability, T/C (second compound 3.16 µM, first compound 1 µM): 74.8% | viability, T/C (second compound 3.16 µM, first compound 3.16 µM): 66.2% | viability, T/C (second compound 3.16 µM, first compound 10 µM): 64% | viability, T/C (second compound 10 µM, first compound 0.0316 µM): 83.3% | viability, T/C (second compound 10 µM, first compound 0.1 µM): 89.6% | viability, T/C (second compound 10 µM, first compound 0.316 µM): 75.8% | viability, T/C (second compound 10 µM, first compound 1 µM): 81.5% | viability, T/C (second compound 10 µM, first compound 3.16 µM): 73.3% | viability, T/C (second compound 10 µM, first compound 10 µM): 59.4%

CCc1cc2c(N3CCc4c(cc(Cn5ccnc5)cc4-c4cn(C)nc4C(F)(F)F)C3=O)ccnc2c(OC)n1
viability, T/C (compound 0.0316 µM): 85.3% and 83.1% and 106% | viability, T/C (compound 0.1 µM): 78.4% and 81% and 75.8% | viability, T/C (compound 0.316 µM): 84.9% and 88.6% and 90.4% | viability, T/C (compound 1 µM): 76% and 83.2% and 91.5% | viability, T/C (compound 3.16 µM): 74.6% and 78.3% and 72.3% | viability, T/C (compound 10 µM): 53.8% and 58.4% and 66.4% | IC50 (curve of compound): > 10 µM

Cn1ncnc1[C@H]1c2n[nH]c(=O)c3cc(F)cc(c23)N[C@@H]1c1ccc(F)cc1
viability, T/C (compound 0.000316 µM): 85.9% and 104% and 97.7% | viability, T/C (compound 0.001 µM): 103% and 90.3% and 99.6% | viability, T/C (compound 0.00316 µM): 103% and 95% and 84.3% | viability, T/C (compound 0.01 µM): 86.2% and 97.3% and 92.6% | viability, T/C (compound 0.0316 µM): 86.9% and 122% and 88.4% | viability, T/C (compound 0.1 µM): 84.2% and 90.4% and 88% | IC50 (curve of compound): > 0.1 µM
